The text below walks through data of patent US10889572B2, “Reactive oxygen species scavengers and use for treating diseases” (XW LABORATORIES INC., priority 2017, dated 2021).

For orientation: EC50 means the concentration needed to bring the measured effect to its halfway point.

Assay [1] relates to HT-1080 (fibrosarcoma) cells. The assay can be described thus: Primary screening by ferroptosis assay (Erastin-induced, cell viability, CellTiter-Glo). It counts as cell-based. The conditions noted are these: HT-1080 cells, 30 hours, % remaining activity, read-out: EC50, Inhibition for Ferroptosis in HT-1080 Cell. The gist of the method: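 HT-1080 cells seeded overnight, then treated in triplicate with 12-point 2-fold compound dilutions prepared in medium containing 400 μM Erastin (stock before transfer). Viability read by CellTiter-Glo luminescence after 30 h. % remaining activity normalised to vehicle and Erastin-only background; EC50 from non-linear regression.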
For orientation: Cellular ATP, detected with luciferase, serves as a proxy for viable cell number.

Assay [2] concerns 3T3-L1 cells. Put plainly: Apoptosis assay (Caspase-Glo 3/7, Actinomycin D induced). In kind it is cell-based. The conditions noted are these: 100 nM Actinomycin D, 48 hours, Caspase-Glo 3/7, 2 hours pre-treatment; read-out: EC50, Inhibition for Apoptosis in 3T3-L1 Cell induced by Actinomycin D. As to the method:
Cell Lines and Media. 3T3-L1 cells were obtained from American Type Culture Collection. Cells were grown in DMEM completed media, 10% FBS, and penicillin-streptomycin mix (Invitrogen). Cells were maintained at 37° C. and 5% CO2 in a tissue culture incubator.
Apoptosis Assay. […] We used this assay to screen our compounds for apoptosis inhibition. Briefly, 40 μL of 3000 3T3-L1 cells were seeded per well in 384 well plates, cells were allowed to adhere overnight. In the next day, prepare the Actinomycin D as the apoptosis inducing agent into 100 μM DMSO stock. Prepare the test compounds into 10 mM DMSO stock. Serial dilute the compound into 10 points by 3-fold dilution with DMSO. Pre-treat the 3T3-L1 cells with test compound by transfer 40 nL of stock of serial concentration in triplicate wells using acoustic fluid transfer, incubate for 2 hours. Then transfer 40 nL of 100 μM of Actinomycin D (final concentration is 100 nM) into designated wells using acoustic fluid transfer. Incubate the assay plates at 37° C., 5% CO2, 95% humidity incubator for 48 hours. For caspase assay, add 20 μL/well of Caspase-Glo>3/7 reagent (Promega) into test wells. Incubate for 30 minutes at room temperature to stabilize the luminescence signal. Read the plate with EnSpire Multimode Plate Reader (PerkinElmer). Calculate the EC50 value using formula equation 201: y−(A+((B−A)/(1+((x/C)^D)))) from the XLFit (Excel add-in software), where
A: Average mean of vehicle samples
B: Average mean of cells treated with 100 nM AcD
Z′ factor was used to describe the screening assay perfonuance. The Z′ factor value was >0.5 in all the test plates which indicated the assay was qualified and the IC50 value was reliable for all tested compounds.

With “1-Oxyl-2,2,6,6-tetramethylpiperidin-4-yl-N-[(4S)—4-{[(2S)-1-[(2S,3E,5S)-2-benzyl-5-{[(tert- butoxy)carbonyl]amino}-7-methyloct-3-enoyl]pyrrolidin-2-yl]formamido}-4-[(1-oxyl-2,2,6,6-tetramethylpiperidin-4-yl)carbamoyl]butyl]carbamate [Example XXXXII]”, the half-maximal effective concentration (EC50) stood at 0.274 µM in assay [1] and 0.708 µM in assay [2].
